According to patent US5278068A, “Biologically pure culture of Cytospora useful as angiotensin II antagonist” (Merck & Co., Inc., priority 1992, dated 1994):
pIC50: −log10 of the molar value. Several values for one entry are separate records, joined by “and”; a condition that tells them apart may be missing. Identical values can stand only once.

Assays:
[1] = molecular target: T1, angiotensin II receptor, site 2 (rat adrenal membranes) (Rattus norvegicus, UniProt P35351); test: Receptor Assay using Rat Adrenal Gland Preparation (125I-Angiotensin II binding); conditions: at site 2, 37° C., 90 minutes
T1 construct: Adrenal membranes for the receptor assay were readied first by placing cleaned, whole adrenal glands in microcentrifuge tubes; from tissue; host or cells: rat adrenal gland membranes
T1 sequence (P35351 1-363): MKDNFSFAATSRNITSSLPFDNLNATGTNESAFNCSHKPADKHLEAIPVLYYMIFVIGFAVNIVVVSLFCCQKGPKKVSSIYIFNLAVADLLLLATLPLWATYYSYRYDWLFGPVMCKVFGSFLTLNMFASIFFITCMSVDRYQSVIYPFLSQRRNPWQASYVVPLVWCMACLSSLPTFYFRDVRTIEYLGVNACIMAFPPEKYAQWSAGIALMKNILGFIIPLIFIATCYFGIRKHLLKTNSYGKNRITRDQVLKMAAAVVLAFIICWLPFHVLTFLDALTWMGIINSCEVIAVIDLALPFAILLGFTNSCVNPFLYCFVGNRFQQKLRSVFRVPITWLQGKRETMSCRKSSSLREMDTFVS
From the text: Angiotensin II (AII) is a powerful arterial vasoconstrictor, and it exerts its action by interacting with specific receptors present on cell membranes. The compounds produced by Cytospora sp. are competitive antagonists of AII at receptor sites. The usefulness of compounds as AII antagonists may be determined from the results of certain receptor binding assays. The initial assay is that using rat adrenal glands and the results of this assay are described herein.
Adrenal membranes for the receptor assay were readied first by placing cleaned, whole adrenal glands in microcentrifuge tubes (20 glands per tube), and freezing and storing under liquid nitrogen. As needed, a microcentrifuge tube of adrenal glands was homogenized in 20 ml 50 mM tris (hydroxymethyl)aminomethane hydrochloride (Tris-HCl) pH 7.7 and centrifuged at 20,000 rpm for 15 minutes at 4° C. […]
For the assay, the adrenal membrane preparation in one vial was resuspended in 30 ml of 100 mM Tris-HCl pH 7.4 with 5 mM MgCl2, 0.2% bovine serum albumin and 0.2 mg/ml bacitracin. […] The vials are counted with a gamma counter for one minute and percent inhibition determined from counts/min (CPM) as follows: [formula] The IC50 is determined by plotting percent inhibition v. concentration of compound tested.

male Sprague-Dawley rats = conditions: rat; known activity; cited from earlier work
rats = conditions: rat; known activity; cited from earlier work

## CCCCCC1=C(C=O)C2OC(C)(C)C(O)CC23OC3C1=O (stereo not drawn) [Compound A]
[1]
  pIC50: 5.49 to 5.79 and 5.70 to 6.00

## CN1C(=O)CN=C(c2ccccc2)c2cc(Cl)ccc21 [Diazepam]
Male Sprague-Dawley rats
  activity in conditioned emotional response assay: active in this assay

## CNC(=O)Oc1ccc2c(c1)[C@]1(C)CCN(C)[C@@H]1N2C [physostigmine]
rats
  activity in passive avoidance assay: known to be active
